# PubChem BioAssay (NCI)
#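 Compound exposure: 48 hours, 5 concentrations, 96-well plates. Here, GI50 denotes the concentration required for 50% inhibition of growth. At the TGI there is no net growth.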
# How the values were obtained:
# Test in all cases: DTP human tumour cell line panel, 48 h
# NCI-H23 lung = tested on: NCI-H23 lung
# NCI-H460 lung = tested on: NCI-H460 lung
# NCI-H522 lung = tested on: NCI-H522 lung
# NCI/ADR-RES ovarian = tested on: NCI/ADR-RES ovarian
# OVCAR-3 ovarian = tested on: OVCAR-3 ovarian
# OVCAR-4 ovarian = tested on: OVCAR-4 ovarian
# OVCAR-5 ovarian = tested on: OVCAR-5 ovarian
# OVCAR-8 ovarian = tested on: OVCAR-8 ovarian
# PC-3 prostate = tested on: PC-3 prostate
# RPMI-8226 leukemia = tested on: RPMI-8226 leukemia
# RXF 393 renal = tested on: RXF 393 renal
# SF-268 CNS = tested on: SF-268 CNS
# SF-295 CNS = tested on: SF-295 CNS
# SF-539 CNS = tested on: SF-539 CNS
# SK-MEL-2 melanoma = tested on: SK-MEL-2 melanoma
# SK-MEL-28 melanoma = tested on: SK-MEL-28 melanoma
# SK-MEL-5 melanoma = tested on: SK-MEL-5 melanoma
# SK-OV-3 ovarian = tested on: SK-OV-3 ovarian
# SN12C renal = tested on: SN12C renal
# SNB-19 CNS = tested on: SNB-19 CNS
# SNB-75 CNS = tested on: SNB-75 CNS
# SR leukemia = tested on: SR leukemia
# SW-620 colon = tested on: SW-620 colon
# T-47D breast = tested on: T-47D breast
# TK-10 renal = tested on: TK-10 renal
# U251 CNS = tested on: U251 CNS
# UACC-257 melanoma = tested on: UACC-257 melanoma
# UACC-62 melanoma = tested on: UACC-62 melanoma
# UO-31 renal = tested on: UO-31 renal
smiles,measurement,setting,value
CN1CCN(c2cc(C(=O)Nc3cc4cc(-c5cnn(C)c5)ccc4cn3)ccn2)CC1,GI50,NCI-H23 lung,0.111 µM
same,TGI,NCI-H23 lung,3.29 µM
same,GI50,NCI-H460 lung,0.121 µM
same,TGI,NCI-H460 lung,11.7 µM
same,GI50,NCI-H522 lung,0.0472 µM
same,TGI,NCI-H522 lung,0.327 µM
same,GI50,NCI/ADR-RES ovarian,0.246 µM
same,TGI,NCI/ADR-RES ovarian,76.4 µM
same,GI50,OVCAR-3 ovarian,0.0425 µM
same,TGI,OVCAR-3 ovarian,0.288 µM
same,GI50,OVCAR-4 ovarian,0.151 µM
same,TGI,OVCAR-4 ovarian,1.46 µM
same,GI50,OVCAR-5 ovarian,0.308 µM
same,TGI,OVCAR-5 ovarian,11.9 µM
same,GI50,OVCAR-8 ovarian,0.225 µM
same,TGI,OVCAR-8 ovarian,11.7 µM
same,GI50,PC-3 prostate,0.314 µM
same,TGI,PC-3 prostate,31.4 µM
same,GI50,RPMI-8226 leukemia,0.108 µM
same,GI50,RXF 393 renal,0.258 µM
same,TGI,RXF 393 renal,0.724 µM
same,GI50,SF-268 CNS,0.2 µM
same,TGI,SF-268 CNS,6.59 µM
same,GI50,SF-295 CNS,0.306 µM
same,TGI,SF-295 CNS,13.2 µM
same,GI50,SF-539 CNS,0.153 µM
same,TGI,SF-539 CNS,2.38 µM
same,GI50,SK-MEL-2 melanoma,0.113 µM
same,TGI,SK-MEL-2 melanoma,0.364 µM
same,GI50,SK-MEL-28 melanoma,0.217 µM
same,TGI,SK-MEL-28 melanoma,2.89 µM
same,GI50,SK-MEL-5 melanoma,0.155 µM
same,TGI,SK-MEL-5 melanoma,0.331 µM
same,GI50,SK-OV-3 ovarian,0.0631 µM
same,TGI,SK-OV-3 ovarian,2.44 µM
same,GI50,SN12C renal,0.123 µM
same,TGI,SN12C renal,12.7 µM
same,GI50,SNB-19 CNS,0.121 µM
same,TGI,SNB-19 CNS,12 µM
same,GI50,SNB-75 CNS,0.137 µM
same,TGI,SNB-75 CNS,0.833 µM
same,GI50,SR leukemia,0.0472 µM
same,TGI,SR leukemia,13.6 µM
same,GI50,SW-620 colon,0.0422 µM
same,TGI,SW-620 colon,11.7 µM
same,GI50,T-47D breast,0.0769 µM
same,TGI,T-47D breast,10.5 µM
same,GI50,TK-10 renal,0.202 µM
same,TGI,TK-10 renal,11.4 µM
same,GI50,U251 CNS,0.188 µM
same,TGI,U251 CNS,13.2 µM
same,GI50,UACC-257 melanoma,0.146 µM
same,TGI,UACC-257 melanoma,10.4 µM
same,GI50,UACC-62 melanoma,0.192 µM
same,TGI,UACC-62 melanoma,0.646 µM
same,GI50,UO-31 renal,0.122 µM
same,TGI,UO-31 renal,0.532 µM
